Earlier results in patent US20080044815A1, “Genetic Screen for Interaction Interface Mapping” (priority 2003, published 2008).

Assays:
embryonic neurons = conditions: Borasio et al. 1998
neurons = conditions: Saporito et al. 1999
[1] = test system: nerve growth factor (NGF)-deprived neurons; conditions: Harris et al. 2002

Structure (SMILES): CCSCc1ccc2c(c1)c1c3c(c4c5cc(CSCC)ccc5n5c4c1n2[C@H]1C[C@](O)(C(=O)OC)[C@]5(C)O1)CNC3=O [CEP-1347]
- survival of embryonic neurons (embryonic neurons): support the survival of embryonic neurons
- loss of neurons in vivo (neurons): attenuate the loss of neurons in vivo
- metabolism and growth of NGF-deprived neurons [1]: preserve the metabolism and growth
